Key:
[1] = test system: Staphylococcus aureus-SMITH (GC 4543); test: Acute lethal infection in mice (ED50); format: in vivo; conditions: female CD-1 mice, intraperitoneal challenge, intravenous dose 30 min. after infection, 7 day survival ratios
Procedure, shortened: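 Median effective dose is calculated from 7-day survival ratios pooled across three separate tests. Mice (female CD-1) receive an intraperitoneal bacterial challenge in broth or hog gastric mucin, then intravenous drug 30 min later, five animals per dose level.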

[2] = Anatomic pathology (heart and kidney histopathology) in mice; format: in vivo, CD-1 mice; conditions: 20 mg/kg intravenously daily for 9 days, microscopic histopathology on day 10
Description: 20-day-old CD-1 mice were divided into a vehicle control group (5 mice) and a treatment group (5 mice). Samples of glycopeptide antibiotics were administered at 20 mg/kg intravenously daily for 9 days.
Samples of tissues from necropsied mice were formalin-fixed, paraffin-embedded, sectioned, stained with hematoxylin and eosin, and examined microscopically. Histopathologic findings were recorded. These findings were subjectively graded on a scale corresponding to slight, mild, moderate, marked and severe as compared to untreated controls.

[3] = test system: Staphylococcus sp.; test: In vitro antibacterial evaluation: minimum inhibitory concentration (MIC), broth dilution method; format: cell-based; conditions: for MIC Staphylococcus haemolyticus (GC 4546): strain GC 4546
Procedure, shortened: (§1)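 An MIC is reported for each organism as the least concentration giving inhibition, using broth dilution over 64-0.06 μg/mL with a 5×10^5 CFU/mL inoculum.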

[4] = test system: Enterococcus sp.; test: as above; format: cell-based
Procedure, shortened: as §1

[5] = test system: Streptococcus sp.; test: as above; format: cell-based
Procedure, shortened: as §1

[6] = test system: Escherichia coli; test: as above; format: cell-based
Procedure, shortened: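 NCCLS M7-A2 broth dilution with Mueller-Hinton II, testing 64-0.06 μg/mL antibiotic against 5×10^5 CFU/mL inocula. Test strains include recent methicillin-, penicillin- or vancomycin-resistant clinical isolates. MIC is the lowest concentration preventing growth.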

[7] = broth dilution, 18 hours at 35° C.

## CN=C1N(C)CC(C(O)C2NC(=O)C(Cc3ccc(OC4OC(CO)C(OC5OC(CO)C(O)C(O)C5O)C(O)C4O)cc3)NC(=O)C(C(C)c3ccccc3)NC(=O)CNC(=O)C(CO)NC(=O)C(C(O)C3CN(C)C(=NC)N3C3OC(CO)C(O)C(O)C3O)NC2=O)N1C (stereo not drawn) [Example 64, Cyclo[glycyl-β-methylphenylalanyl-O-(4-O-hexopyranosylhexopyranosyl)tyrosyl-3-(1,3-dimethyl-2-(methylimino)imidazolidin-4-yl)seryl-3-[3-hexopyranosyl-1-methyl-2-(methylimino)imidazolidin-4-yl]-serylseryl]]
[1]
  median effective dose (ED50), Staphylococcus aureus-SMITH (GC 4543): >8
[2]
  Anatomical Pathology (Day 10), Heart: 0
  Anatomical Pathology (Day 10), Kidney: 0

## CC(c1ccccc1)C1NC(=O)CNC(=O)C(CO)NC(=O)C(C(O)C2CN(Cc3ccc(C(=O)O)cc3)C(=N)N2C2OC(CO)C(O)C(O)C2O)NC(=O)C(C(O)C2CNC(=N)N2)NC(=O)C(Cc2ccc(OC3OC(CO)C(OC4OC(CO)C(O)C(O)C4O)C(O)C3O)cc2)NC1=O (stereo not drawn) [Example 69, Cyclo[glycyl-β-methylphenylalanyl-O-(4-O-hexopyranosylhexopyranosyl)tyrosyl-3-(2-iminoimidazolidin-4-yl)seryl-3-[1-(4-carboxybenzyl)-2-imino-3-hexopyranosylimidazolidin-4-yl]-serylseryl]]
[1]
  median effective dose (ED50), Staphylococcus aureus-SMITH (GC 4543): >8
[2]
  Anatomical Pathology (Day 10), Heart: 0
  Anatomical Pathology (Day 10), Kidney: 0

## CCCCCCCN1CC(C(O)C2NC(=O)C(C(O)C3CNC(=N)N3)NC(=O)C(Cc3ccc(OC4OC(CO)C(OC5OC(CO)C(O)C(O)C5O)C(O)C4O)cc3)NC(=O)C(C(C)c3ccccc3)NC(=O)CNC(=O)C(CO)NC2=O)N(C2OC(CO)C(O)C(O)C2O)C1=N (stereo not drawn) [Example 71, Cyclo[glycyl-β-methylphenylalanyl-O-(4-O-hexopyranosylhexopyranosyl]tyrosyl-3-(2-iminoimidazolidin-4-yl)seryl-3-[1-heptyl-3-hexopyranosyl-2-iminoimidazolidin-4-yl]serylseryl]]
[1]
  median effective dose (ED50), Staphylococcus aureus-SMITH (GC 4543): >8
[2]
  Anatomical Pathology (Day 10), Heart: 0
  Anatomical Pathology (Day 10), Kidney: 0

## CN=C1N(C)CC(CC2NC(=O)C(Cc3ccc(OC4OC(CO)C(OC5OC(CO)C(O)C(O)C5O)C(O)C4O)cc3)NC(=O)C(C(C)c3ccccc3)NC(=O)CNC(=O)C(CO)NC(=O)C(CC3CN(C)C(=NC)N3C3OC(CO)C(O)C(O)C3O)NC2=O)N1C (stereo not shown) [Example 74]
[1]
  median effective dose (ED50), Staphylococcus aureus-SMITH (GC 4543): >8
[2]
  Anatomical Pathology (Day 10), Heart: 0
  Anatomical Pathology (Day 10), Kidney: 0

## CN=C1N(C)CC(C(O)C2NC(=O)C(Cc3ccc(OC4OC(CO)C(OC5OC6COC7(OC6C(O)C5O)C5CC6CC(C5)CC7C6)C(O)C4O)cc3)NC(=O)C(C(C)c3ccccc3)NC(=O)CNC(=O)C(CO)NC(=O)C(C(O)C3CN(C)C(=NC)N3C3OC(CO)C(O)C(O)C3O)NC2=O)N1C (stereo not shown) [Example 81]
[3]; [7]
  MIC Coagulase Negative Staphylococcus (GC 4547): >128 µg/mL
  MIC Coagulase Negative Staphylococcus (GC 4548): >128 µg/mL
  MIC Coagulase Negative Staphylococcus (GC 4549): >128 µg/mL
  MIC Coagulase Negative Staphylococcus (GC 4551): >128 µg/mL
  MIC Coagulase Negative Staphylococcus (GC 6257): >128 µg/mL
  MIC Staphylococcus aureus (ATCC 29213): >128 µg/mL
  MIC Staphylococcus aureus (GC 1131): >128 µg/mL
  MIC Staphylococcus aureus (GC 3051): >128 µg/mL
  MIC Staphylococcus aureus (GC 3053): >128 µg/mL
  MIC Staphylococcus aureus (GC 4541): >128 µg/mL
  MIC Staphylococcus aureus (GC 4542): >128 µg/mL
  MIC Staphylococcus aureus (GC 4544): >128 µg/mL
  MIC Staphylococcus aureus (GC 4545): >128 µg/mL
  MIC Staphylococcus aureus SMITH (GC 4543): >128 µg/mL
[1]
  median effective dose (ED50), Staphylococcus aureus-SMITH (GC 4543): >8
[2]
  Anatomical Pathology (Day 10), Heart: 0
  Anatomical Pathology (Day 10), Kidney: 0

## Tri-N-[(phenylmethoxy)carbonyl]-cyclo[glycyl-β-methylphenylalanyltyrosyl-3-(2-iminoimidazolidin-4-yl)seryl-3-(3-hexopyranosyl-2-iminoimidazolidin-4-yl)serylseryl] [Example 89]
[4]; Enterococcus avium (GC 4558), broth dilution, 18 hours at 35° C.
  MIC Enterococcus avium (GC 4558): 32 µg/mL
[4]; Enterococcus faecalis (ATCC 29212), broth dilution, 18 hours at 35° C.
  MIC Enterococcus faecalis (ATCC 29212): 64 µg/mL
[4]; Enterococcus faecalis (GC 2242), broth dilution, 18 hours at 35° C.
  MIC Enterococcus faecalis (GC 2242): 64 µg/mL
[4]; Enterococcus faecalis (GC 2691), broth dilution, 18 hours at 35° C.
  MIC Enterococcus faecalis (GC 2691): 64 µg/mL
[4]; Enterococcus faecalis (GC 3059), broth dilution, 18 hours at 35° C.
  MIC Enterococcus faecalis (GC 3059): 64 µg/mL
[4]; Enterococcus faecalis (GC 4552), broth dilution, 18 hours at 35° C.
  MIC Enterococcus faecalis (GC 4552): 64 µg/mL
[4]; Enterococcus faecalis (GC 4553), broth dilution, 18 hours at 35° C.
  MIC Enterococcus faecalis (GC 4553): 64 µg/mL
[4]; Enterococcus faecalis (GC 4554), broth dilution, 18 hours at 35° C.
  MIC Enterococcus faecalis (GC 4554): 64 µg/mL
[4]; Enterococcus faecalis (GC 6189), broth dilution, 18 hours at 35° C.
  MIC Enterococcus faecalis (GC 6189): 64 µg/mL
[4]; Enterococcus faecium (GC 2243), broth dilution, 18 hours at 35° C.
  MIC Enterococcus faecium (GC 2243): 64 µg/mL
[4]; Enterococcus faecium (GC 4556), broth dilution, 18 hours at 35° C.
  MIC Enterococcus faecium (GC 4556): 64 µg/mL
[4]; Enterococcus faecium (GC 4557), broth dilution, 18 hours at 35° C.
  MIC Enterococcus faecium (GC 4557): 32 µg/mL
[4]; strain ATCC 29212
  MIC Enterococcus faecalis (ATCC 29212): 64 µg/mL
[4]; strain GC 2242
  MIC Enterococcus faecalis (GC 2242): 64 µg/mL
[4]; strain GC 2243
  MIC Enterococcus faecium (GC 2243): 64 µg/mL
[4]; strain GC 2691
  MIC Enterococcus faecalis (GC 2691): 64 µg/mL
[4]; strain GC 3059
  MIC Enterococcus faecalis (GC 3059): 64 µg/mL
[4]; strain GC 4552
  MIC Enterococcus faecalis (GC 4552): 64 µg/mL
[4]; strain GC 4553
  MIC Enterococcus faecalis (GC 4553): 64 µg/mL
[4]; strain GC 4554
  MIC Enterococcus faecalis (GC 4554): 64 µg/mL
[4]; strain GC 4556
  MIC Enterococcus faecium (GC 4556): 64 µg/mL
[4]; strain GC 4557
  MIC Enterococcus faecium (GC 4557): 32 µg/mL
[4]; strain GC 4558
  MIC Enterococcus avium (GC 4558): 32 µg/mL
[4]; strain GC 6189
  MIC Enterococcus faecalis (GC 6189): 64 µg/mL
[5]; Streptococcus agalactiae (GC 4564), broth dilution, 18 hours at 35° C.
  MIC Streptococcus agalactiae (GC 4564): 32 µg/mL
[5]; Streptococcus pneumoniae (ATCC 6301), broth dilution, 18 hours at 35° C.
  MIC Streptococcus pneumoniae (ATCC 6301): 16 µg/mL
[5]; Streptococcus pneumoniae (GC 1894), broth dilution, 18 hours at 35° C.
  MIC Streptococcus pneumoniae (GC 1894): 4 µg/mL
[5]; Streptococcus pneumoniae (GC 4565), broth dilution, 18 hours at 35° C.
  MIC Streptococcus pneumoniae (GC 4565): 8 µg/mL
[5]; Streptococcus pyogenes (GC 4563), broth dilution, 18 hours at 35° C.
  MIC Streptococcus pyogenes (GC 4563): 32 µg/mL
[5]; strain ATCC 6301
  MIC Streptococcus pneumoniae (ATCC 6301): 16 µg/mL
[5]; strain GC 1894
  MIC Streptococcus pneumoniae (GC 1894): 4 µg/mL
[5]; strain GC 4563
  MIC Streptococcus pyogenes (GC 4563): 32 µg/mL
[5]; strain GC 4564
  MIC Streptococcus agalactiae (GC 4564): 32 µg/mL
[5]; strain GC 4565
  MIC Streptococcus pneumoniae (GC 4565): 8 µg/mL
[6]; strain ATCC 25922
  MIC Escherichia coli (ATCC 25922): >64 µg/mL
[6]; strain GC 4559
  MIC Escherichia coli (GC 4559): >64 µg/mL
[6]; strain GC 4560
  MIC Escherichia coli (GC 4560): 32 µg/mL
[3]; [7]
  MIC Staphylococcus aureus (ATCC 29213): 64 µg/mL
  MIC Staphylococcus aureus (GC 1131): 64 µg/mL
  MIC Staphylococcus aureus (GC 3051): 64 µg/mL
  MIC Staphylococcus aureus (GC 3053): 64 µg/mL
  MIC Staphylococcus aureus (GC 4541): 64 µg/mL
  MIC Staphylococcus aureus (GC 4542): 64 µg/mL
  MIC Staphylococcus aureus (GC 4544): 64 µg/mL
  MIC Staphylococcus aureus (GC 4545): 64 µg/mL
  MIC Staphylococcus haemolyticus (GC 4546): 32 µg/mL
[3]; strain ATCC 29213, broth dilution, 18 hours at 35° C.
  MIC Staphylococcus aureus (ATCC 29213): 64 µg/mL
[3]; strain GC 1131, broth dilution, 18 hours at 35° C.
  MIC Staphylococcus aureus (GC 1131): 64 µg/mL
[3]; strain GC 3051, broth dilution, 18 hours at 35° C.
  MIC Staphylococcus aureus (GC 3051): 64 µg/mL
[3]; strain GC 3053, broth dilution, 18 hours at 35° C.
  MIC Staphylococcus aureus (GC 3053): 64 µg/mL
[3]; strain GC 4541, broth dilution, 18 hours at 35° C.
  MIC Staphylococcus aureus (GC 4541): 64 µg/mL
[3]; strain GC 4542, broth dilution, 18 hours at 35° C.
  MIC Staphylococcus aureus (GC 4542): 64 µg/mL
[3]; strain GC 4543, 18 hours at 35° C.
  MIC Staphylococcus aureus-SMITH (GC 4543): 64 µg/mL
[3]; strain GC 4544, broth dilution, 18 hours at 35° C.
  MIC Staphylococcus aureus (GC 4544): 64 µg/mL
[3]; strain GC 4545, broth dilution, 18 hours at 35° C.
  MIC Staphylococcus aureus (GC 4545): 64 µg/mL
[3]
  MIC Staphylococcus haemolyticus (GC 4546): 32 µg/mL
[3]; strain GC 4547
  MIC Coagulase Negative Staphylococcus (GC 4547): 32 µg/mL
[3]; strain GC 4547, broth dilution, 18 hours at 35° C.
  MIC Coagulase Negative Staphylococcus (GC 4547): 32 µg/mL
[3]; strain GC 4548
  MIC Coagulase Negative Staphylococcus (GC 4548): 64 µg/mL
[3]; strain GC 4548, broth dilution, 18 hours at 35° C.
  MIC Coagulase Negative Staphylococcus (GC 4548): 64 µg/mL
[3]; strain GC 4549
  MIC Coagulase Negative Staphylococcus (GC 4549): 64 µg/mL
[3]; strain GC 4549, broth dilution, 18 hours at 35° C.
  MIC Coagulase Negative Staphylococcus (GC 4549): 64 µg/mL
[3]; strain GC 4551
  MIC Coagulase Negative Staphylococcus (GC 4551): 64 µg/mL
[3]; strain GC 4551, broth dilution, 18 hours at 35° C.
  MIC Coagulase Negative Staphylococcus (GC 4551): 64 µg/mL
[3]; strain GC 6257
  MIC Coagulase Negative Staphylococcus (GC 6257): 32 µg/mL
[3]; strain GC 6257, broth dilution, 18 hours at 35° C.
  MIC Coagulase Negative Staphylococcus (GC 6257): 32 µg/mL
[3]; strain SMITH GC 4543, broth dilution, 18 hours at 35° C.
  MIC Staphylococcus aureus-SMITH (GC 4543): 64 µg/mL
[1]
  median effective dose (ED50), Staphylococcus aureus-SMITH (GC 4543): >8

Source: US8247211B2, “Glycopeptide antibiotics” (American Cyanamid Company, priority 2001, dated 2012)
